From patent US20100204224A1, “AZACYCLIC COMPOUNDS AS INHIBITORS OF SENSORY NEURONE SPECIFIC SODIUM CHANNELS” (priority 2005, published 2010)
Where a name gives a salt, the structure may show the parent alone.

These compounds were tested against T1, human Nav1.8 (hNav1.8) ion channel (Homo sapiens, UniProt Q9Y5Y9) (assay: Inhibition of human Nav1.8 stably expressed in SH-SY-5Y cells (membrane potential dye fluorescence assay)). Conditions: SH-SY-5Y hNav1.8 cells; FLIPR membrane potential dye; 10 μM pyrethroid, 250 nM TTX; test concentration range 100 μM-0.05 μM; read-out: hNav1.8 IC50.
T1 construct: expressed in transfected cells
Format: cell-based

T1 sequence (Q9Y5Y9 whole entry): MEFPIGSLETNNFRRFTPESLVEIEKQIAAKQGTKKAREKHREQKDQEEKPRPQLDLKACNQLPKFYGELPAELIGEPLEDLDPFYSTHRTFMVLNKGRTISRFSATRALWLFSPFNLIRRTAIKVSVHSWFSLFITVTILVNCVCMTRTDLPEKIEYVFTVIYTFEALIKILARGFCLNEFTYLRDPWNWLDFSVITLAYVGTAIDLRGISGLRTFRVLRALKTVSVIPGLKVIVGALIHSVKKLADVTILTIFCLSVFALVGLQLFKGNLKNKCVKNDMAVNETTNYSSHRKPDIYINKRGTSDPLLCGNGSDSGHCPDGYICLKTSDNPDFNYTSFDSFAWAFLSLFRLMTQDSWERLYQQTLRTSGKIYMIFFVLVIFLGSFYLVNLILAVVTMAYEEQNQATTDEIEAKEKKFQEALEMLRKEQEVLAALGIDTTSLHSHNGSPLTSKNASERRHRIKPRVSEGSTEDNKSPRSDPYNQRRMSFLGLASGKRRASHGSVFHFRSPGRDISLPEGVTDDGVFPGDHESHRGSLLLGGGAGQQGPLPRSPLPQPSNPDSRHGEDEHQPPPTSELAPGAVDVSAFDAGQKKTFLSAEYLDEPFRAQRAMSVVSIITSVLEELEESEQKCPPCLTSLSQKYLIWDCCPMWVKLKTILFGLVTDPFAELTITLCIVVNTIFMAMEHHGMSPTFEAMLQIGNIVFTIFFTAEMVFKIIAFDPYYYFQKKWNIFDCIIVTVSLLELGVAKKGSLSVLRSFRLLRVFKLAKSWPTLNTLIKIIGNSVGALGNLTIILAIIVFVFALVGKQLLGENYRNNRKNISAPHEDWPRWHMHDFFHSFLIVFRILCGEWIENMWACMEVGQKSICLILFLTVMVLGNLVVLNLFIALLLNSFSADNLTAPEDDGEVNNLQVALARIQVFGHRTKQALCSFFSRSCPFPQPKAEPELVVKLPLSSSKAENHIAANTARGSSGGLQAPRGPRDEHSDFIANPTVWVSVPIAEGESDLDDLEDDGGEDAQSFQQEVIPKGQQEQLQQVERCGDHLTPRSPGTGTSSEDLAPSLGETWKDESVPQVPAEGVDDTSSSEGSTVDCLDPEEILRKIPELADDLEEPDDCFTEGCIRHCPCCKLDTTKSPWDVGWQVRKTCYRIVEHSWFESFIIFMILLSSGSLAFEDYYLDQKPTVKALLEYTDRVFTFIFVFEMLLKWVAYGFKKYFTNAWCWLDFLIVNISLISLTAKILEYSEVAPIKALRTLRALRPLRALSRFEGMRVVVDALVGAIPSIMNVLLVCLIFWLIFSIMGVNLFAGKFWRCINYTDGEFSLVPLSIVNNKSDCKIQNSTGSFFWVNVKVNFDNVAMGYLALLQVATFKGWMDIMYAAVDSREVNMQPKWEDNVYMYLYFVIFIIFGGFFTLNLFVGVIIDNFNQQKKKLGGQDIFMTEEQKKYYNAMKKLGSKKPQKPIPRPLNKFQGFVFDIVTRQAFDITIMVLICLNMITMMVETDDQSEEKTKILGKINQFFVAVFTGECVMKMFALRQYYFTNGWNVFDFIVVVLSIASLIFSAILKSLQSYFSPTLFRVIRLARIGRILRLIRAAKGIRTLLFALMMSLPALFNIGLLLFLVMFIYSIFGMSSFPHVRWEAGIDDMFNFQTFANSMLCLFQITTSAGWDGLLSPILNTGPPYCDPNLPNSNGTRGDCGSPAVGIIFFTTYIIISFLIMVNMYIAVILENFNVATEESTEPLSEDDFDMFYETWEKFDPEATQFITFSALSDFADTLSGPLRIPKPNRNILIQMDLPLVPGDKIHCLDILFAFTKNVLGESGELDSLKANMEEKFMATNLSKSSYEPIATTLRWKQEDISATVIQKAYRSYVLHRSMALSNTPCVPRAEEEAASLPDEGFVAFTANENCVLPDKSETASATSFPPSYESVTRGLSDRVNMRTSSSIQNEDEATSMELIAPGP

SMILES	IC50 [nM]
Cc1ccccc1C(C)N1CC2CC1CN2C(=O)Nc1ccc(OC2CCCC2)cc1 (stereo not drawn) [Example 24, 5-(1-o-Tolyl-ethyl)-2,5-diaza-bicyclo[2.2.1]heptane-2-carboxylic acid (4-cyclopentyloxy-phenyl)-amide]	890
CC(c1ccc(F)cc1)N1CC2CC1CN2C(=O)Nc1cccc(Oc2ccccc2)c1 (stereo not drawn) [Example 49, 5-[1-(4-Fluoro-phenyl)-ethyl]-2,5-diaza-bicyclo[2.2.1]heptane-2-carboxylic acid (3-phenoxy-phenyl)-amide]	1080
Cc1ccccc1C(C)N1CC2CC1CN2C(=O)Nc1ccc(OC2CCOCC2)cc1 (stereo not drawn) [Example 22, 5-(1-o-Tolyl-ethyl)-2,5-diaza-bicyclo[2.2.1]heptane-2-carboxylic acid [4-(tetrahydro-pyran-4-yloxy)-phenyl]-amide]	18900
CC(c1ccccc1Cl)N1CC2CC1CN2C(=O)c1ccc(Oc2ccc(F)cc2)c(F)c1 (single isomer, unassigned) [Example 176, {5-[1-(2-Chloro-phenyl)-ethyl]-2,5-diaza-bicyclo[2.2.1]hept-2-yl}-[3-fluoro-4-(4-fluoro-phenoxy)-phenyl]-methanone]	430
CC(c1ccccc1Cl)N1CC2CC1CN2C(=O)c1ccc(Oc2ccc(F)cc2)c(F)c1 (stereo not drawn) [Example 178, {5-[1-(2-Chloro-phenyl)-ethyl]-2,5-diaza-bicyclo[2.2.1]hept-2-yl}-[3-fluoro-4-(4-fluoro-phenoxy)-phenyl]-methanone methanesulfonate salt]	610
O=C(Nc1ccc(Oc2ccc(F)cc2)cc1)N1CC2CC1CN2C1CCc2cc(F)ccc2C1 (stereo not drawn) [Example 102, 5-(6-Fluoro-1,2,3,4-tetrahydro-naphthalen-2-yl)-2,5-diaza-bicyclo[2.2.1]heptane-2-carboxylic acid [4-(4-fluoro-phenoxy)-phenyl]-amide]	710
CC(c1ccccc1Cl)N1CC2CC1CN2C(=O)Nc1ccc(Oc2ccc(F)cc2)nc1 (stereo not drawn) [Example 182, 5-[1-(2-Chloro-phenyl)-ethyl]-2,5-diaza-bicyclo[2.2.1]heptane-2-carboxylic acid [6-(4-fluoro-phenoxy)-pyridin-3-yl]-amide methanesulfonate salt]	270
CCCCOc1ccc(NC(=O)N2CC3CC2CN3Cc2sccc2C)cc1 (stereo not drawn) [Example 3, 5-(3-Methyl-thiophen-2-ylmethyl)-2,5-diaza-bicyclo[2.2.1]heptane-2-carboxylic acid (4-butoxy-phenyl)-amide]	1030
CC(c1ccc(Cl)cc1Cl)N1CC2CC1CN2C(=O)Nc1ccc(Oc2ccc(F)cc2)cc1 (stereo not drawn) [Example 119, 5-[1-(2,4-Dichloro-phenyl)-ethyl]-2,5-diaza-bicyclo[2.2.1]heptane-2-carboxylic acid [4-(4-fluoro-phenoxy)-phenyl]-amide]	20900
CC(c1ccccc1Cl)N1CC2CC1CN2C(=O)c1ccc(Oc2cccc(F)c2)cc1 (stereo not drawn) [Example 169, {5-[1-(2-Chloro-phenyl)-ethyl]-2,5-diaza-bicyclo[2.2.1]hept-2-yl}-[4-(3-fluoro-phenoxy)-phenyl]-methanone]	840
CC(Cc1ccc(Cl)cc1Cl)N1CC2CC1CN2C(=O)Nc1ccc(C(F)(F)F)cc1 (stereo not drawn) [Example 84, 5-[2-(2,4-Dichloro-phenyl)-1-methyl-ethyl]-2,5-diaza-bicyclo[2.2.1]heptane-2-carboxylic acid (4-trifluoromethyl-phenyl)-amide]	1060
Cc1ccccc1C(C)N1CC2CC1CN2C(=O)NC(C)c1ccc(F)cc1 (stereo not drawn) [Example 69, 5-(1-o-Tolyl-ethyl)-2,5-diaza-bicyclo[2.2.1]heptane-2-carboxylic acid [1-(4-fluoro-phenyl)-ethyl]-amide]	17100
Cc1ccccc1C(C)N1CC2CC1CN2C(=O)Nc1ccc(OCCN2CCOCC2)cc1 (stereo not drawn) [Example 44, 5-(1-o-Tolyl-ethyl)-2,5-diaza-bicyclo[2.2.1]heptane-2-carboxylic acid [4-(2-morpholin-4-yl-ethoxy)-phenyl]-amide]	26800
CC(c1c(F)cccc1Cl)N1CC2CC1CN2C(=O)c1ccc(Oc2ccc(F)cc2)cc1 (stereo not drawn) [Example 167, {5-[1-(2-Chloro-6-fluoro-phenyl)-ethyl]-2,5-diaza-bicyclo[2.2.1]hept-2-yl}-[4-(4-fluoro-phenoxy)-phenyl]-methanone]	2220
CC(Cc1ccccc1Cl)N1CC2CC1CN2C(=O)Nc1ccc(C(F)(F)F)cc1 (stereo not drawn) [Example 82, 5-[2-(2-Chloro-phenyl)-1-methyl-ethyl]-2,5-diaza-bicyclo[2.2.1]heptane-2-carboxylic acid (4-trifluoromethyl-phenyl)-amide]	440
CC(c1ccccc1Cl)N1CC2CC1CN2C(=O)c1ccc(Oc2ccc(F)cc2)c(F)c1 (single isomer, unassigned) [Example 177, {5-[1-(2-Chloro-phenyl)-ethyl]-2,5-diaza-bicyclo[2.2.1]hept-2-yl}-[3-fluoro-4-(4-fluoro-phenoxy)-phenyl]-methanone]	740
CC(Cc1ccc(Cl)cc1)N1CC2CC1CN2C(=O)Nc1ccc(C(F)(F)F)cc1 (stereo not drawn) [Example 83, 5-[2-(4-Chloro-phenyl)-1-methyl-ethyl]-2,5-diaza-bicyclo[2.2.1]heptane-2-carboxylic acid (4-trifluoromethyl-phenyl)-amide]	680
O=C(Nc1ccc(Oc2ccccc2)cc1)N1CC2CC1CN2C1Cc2ccccc2C1 (stereo not drawn) [Example 105, 5-Indan-2-yl-2,5-diaza-bicyclo[2.2.1]heptane-2-carboxylic acid (4-phenoxy-phenyl)-amide]	200
Cc1ccsc1CN1CC2CC1CN2C(=O)Nc1ccc(Oc2ccccc2)cc1 (stereo not drawn) [Example 1, 5-(3-Methyl-thiophen-2-ylmethyl)-2,5-diaza-bicyclo[2.2.1]heptane-2-carboxylic acid (4-phenoxy-phenyl)-amide]	410
CC(c1c(F)cccc1F)N1CC2CC1CN2C(=O)Nc1ccc(C(F)(F)F)cc1 (stereo not drawn) [Example 13, 5-[1-(2,6-Difluoro-phenyl)-ethyl]-2,5-diaza-bicyclo[2.2.1]heptane-2-carboxylic acid (4-trifluoromethyl-phenyl)-amide]	6360
CC(c1ccc(F)cc1)N1CC2CC1CN2C(=O)Nc1cccc(C(F)(F)F)c1 (stereo not drawn) [Example 47, 5-[1-(4-Fluoro-phenyl)-ethyl]-2,5-diaza-bicyclo[2.2.1]heptane-2-carboxylic acid (3-trifluoromethyl-phenyl)-amide]	2610
CC(c1ccccc1Cl)N1CC2CC1CN2C(=O)Nc1ccc(Oc2ccc(F)cc2)cc1 (stereo not drawn) [Example 96, 5-[1-(2-Chloro-phenyl)-ethyl]-2,5-diaza-bicyclo[2.2.1]heptane-2-carboxylic acid [4-(4-fluoro-phenoxy)-phenyl]-amide methanesulfonate salt]	370
O=C(c1ccc(C(F)(F)F)cc1)N1CC2CC1CN2C1CCc2ccc(F)cc2C1 (stereo not drawn) [Example 138, [5-(7-Fluoro-1,2,3,4-tetrahydro-naphthalen-2-yl)-2,5-diaza-bicyclo[2.2.1]hept-2-yl]-(4-trifluoromethyl-phenyl)-methanone]	13300
CC(c1ccc(F)cc1Cl)N1CC2CC1CN2C(=O)c1ccc(Oc2ccc(F)cc2)cc1 (stereo not drawn) [Example 164, {5-[1-(2-Chloro-4-fluoro-phenyl)-ethyl]-2,5-diaza-bicyclo[2.2.1]hept-2-yl}-[4-(4-fluoro-phenoxy)-phenyl]-methanone]	13500
CC(c1c(F)cccc1Cl)N1CC2CC1CN2C(=O)c1ccc(Oc2ccc(F)cc2)cc1 (stereo not drawn) [Example 168, {5-[1-(2-Chloro-6-fluoro-phenyl)-ethyl]-2,5-diaza-bicyclo[2.2.1]hept-2-yl}-[4-(4-fluoro-phenoxy)-phenyl]-methanone]	1700
Cc1ccccc1C(C)N1CC2CC1CN2C(=O)Nc1ccc(Cc2ccccc2)cc1 (stereo not drawn) [Example 35, 5-(1-o-Tolyl-ethyl)-2,5-diaza-bicyclo[2.2.1]heptane-2-carboxylic acid (4-benzyl-phenyl)-amide]	590
Cc1cc(F)ccc1C(C)N1CC2CC1CN2C(=O)Nc1ccc(C(=O)c2ccccc2)cc1 (stereo not drawn) [Example 72, 5-[1-(4-Fluoro-2-methyl-phenyl)-ethyl]-2,5-diaza-bicyclo[2.2.1]heptane-2-carboxylic acid (4-benzoyl-phenyl)-amide]	2260
Cc1ccccc1CC(C)N1CC2CC1CN2C(=O)Nc1ccc(C(F)(F)F)cc1 (stereo not drawn) [Example 59, 5-(1-Methyl-2-o-tolyl-ethyl)-2,5-diaza-bicyclo[2.2.1]heptane-2-carboxylic acid (4-trifluoromethyl-phenyl)-amide]	750

Same assay, conditions: hNav1.8 IC50, SH-SY-5Y hNav1.8 cells; FLIPR membrane potential dye; 10 μM pyrethroid, 250 nM TTX; test concentration range 100 μM-0.05 μM

SMILES	IC50 [nM]
CC(c1ccccc1Br)N1CC2CC1CN2C(=O)Cc1ccc(Oc2ccc(F)cc2)cc1 (stereo not drawn) [Example 153, 1-{5-[1-(2-Bromo-phenyl)-ethyl]-2,5-diaza-bicyclo[2.2.1]hept-2-yl}-2-[4-(4-fluoro-phenoxy)-phenyl]-ethanone]	3330
Cc1ccccc1C(C)N1CC2CC1CN2C(=O)Nc1ccc(Oc2ccc(F)cc2)cc1 (single isomer, unassigned) [Example 74, 5-(1-o-Tolyl-ethyl)-2,5-diaza-bicyclo[2.2.1]heptane-2-carboxylic acid [4-(4-fluoro-phenoxy)-phenyl]-amide]	110
